Results taken from patent publication US8273768B2, “Iso CA-4 and analogues thereof as potent cytotoxic agents inhibiting tubuline polymerization” (Centre National de la Recherche Scientifique (CNRS), priority 2007, dated 2012).
Like-named read-outs stand apart in the source and are kept apart here.

How the values were obtained:
[1] = tested on: mouse leukemic P-388 cells; conditions: cited from earlier work
[2] = target: T1, purified tubulin from pig brains (Sus scrofa, UniProt P02550+P02554); experiment: Inhibition of polymerization of tubulin (turbidimetry); assay type: biochemical; conditions: pig brain tubulin, turbidimetry at 350 nm
T1 construct: from pig brains, where it forms 20-25% of the soluble proteins; from tissue; host or cells: pig brain
Protocol: Tests relating to the inhibition of polymerization of tubulin were carried out on compounds which had the best cytotoxic activities. These tests were carried out on purified tubulin by the Shelanski method (Shelanski, M. C.; Gaskin, F.; Cantor, C. R. Proc. Natl. Acad. Sci. USA, 1973, 70, 765-768) from pig brains, where it forms 20-25% of the soluble proteins. Purification method is based on temperature-dependent assembling-disassembling cycles. Polymerization of tubulin was tracked with turbidimetry according to the Gaskin method (Gaskin, F.; Cantor, C. R.; Shelanski, M. L. J. Bio. Mol. 1974, 89, 737) at a wavelength of 350 nm. The different samples were dissolved in DMSO and incubated for 10 minutes at 37° C. and then for 5 minutes at 0° C.
The CA-4 compound and DMSO were taken as references.
The tests have shown for these compounds an activity inhibiting polymerization of tubulin similar to the one of the reference compound CA-4 (of the order of only one micromolar concentration to a few tens of micromolar concentrations).

[3] = tested on: HCT116; experiment: Study of cytotoxicity (CellTiter-Blue, 72 hours); assay type: cell-based; conditions: Homo sapiens, HCT-116; 72 hours of incubation; read-out: IC50 for different cell lines: HCT116
Protocol: (§1) The biological activity of the compounds of the invention was studied in vitro on 7 human cancer cell lines with different tissue origins (HCT116: colorectal carcinoma; K562: chronic myeloid leukemia; B16-F10: melanoma; U87: glioblastoma; A549: lung cancer and MDA-MB 231 and MDA-MB 435: breast cancer). The cells selected for the study were incubated at 37° C. in the presence of one of the compounds added into the culture medium at different concentrations. The whole of the conducted experiments allowed determination of the toxicity level of the tested compound, its effect on the course of the cell cycle as well as its capacity of inducing cell death by apoptosis.
(§2) The cancer cell lines originate from the American Type Culture Collection (Rockville, Md., USA) and were grown according to the recommendations of the supplier.
(§3) The cells A549, U87, MDA-MB231, MDA-MB435 and B16F10 were grown in a culture medium “Dulbecco minimal essential medium” (DMEM) containing 4.5 g/L of glucose and supplemented with 10% fetal calf serum and 1% glutamine. The K562 and HCT116 were grown in an RPMI 1640 medium containing 10% fetal calf serum and 1% glutamine. All the cell lines were maintained in the culture at 37° C. in a humid atmosphere containing 5% of CO2. Cell viability was evaluated by using the reagent “CellTiter-Blue™” (Promega, Wis., USA) while observing the instructions of the manufacturer. The cells were sown in 96-well culture plates with 5000 cells per well in 50 μL of culture medium. After 24 hours of culture, the compounds of general formula (I) dissolved in DMSO were individually added into each of the wells in an amount of 50 μl per well. All the compounds were tested in triplicate for each defined concentration and each experiment was repeated three times. After 72 hours of incubation, 20 μL of resazurin were added in each well. After 2 hours of incubation, the emitted fluorescence was measured at 590 nm after excitation at 560 nm by means of a fluorescence reader of the Victor type (Perkin-Elmer, USA).
(§4) The concentration of each of the compounds which induces the death of 50% of the cells (IC50) was determined after 72 hours of incubation. Certain compounds according to the invention have an IC50 of the order of one nanomolar concentration, therefore equivalent to CA-4 taken as a reference.

[4] = tested on: A549; experiment: Study of cytotoxicity (CellTiter-Blue, 72 hours); assay type: cell-based; conditions: Homo sapiens, read-out: IC50 for different cell lines: A549
Protocol: as §1, §2, §3, §4

[5] = tested on: MDA-MB 231; experiment: Study of cytotoxicity (CellTiter-Blue, 72 hours); assay type: cell-based; conditions: Homo sapiens, read-out: IC50 for different cell lines: M231
Protocol: as §1, §2, §3, §4

[6] = tested on: MDA-MB 435; experiment: Study of cytotoxicity (CellTiter-Blue, 72 hours); assay type: cell-based; conditions: Homo sapiens, read-out: IC50 for different cell lines: M435
Protocol: as §1, §2, §3, §4

[7] = tested on: U87; experiment: Study of cytotoxicity (CellTiter-Blue, 72 hours); assay type: cell-based; conditions: Homo sapiens, U-87 MG, read-out: IC50 for different cell lines: U87
Protocol: as §1, §2, §3, §4

[8] = tested on: mouse colon adenocarcinoma 26; conditions: cited from earlier work
[9] = tested on: HCT 15 cells; conditions: read-out: IC50, cytotoxic activity; cited from earlier work
[10] = tested on: human colon tumors LS174T xenografted in Nude mice; experiment: Antivascular activity in vivo (MRI, Dotarem entry into tumors); conditions: LS174T xenograft, 3 hours after administration, DMXAA 27.5 mg/kg IP, (I-1) 45 mg/kg IV
Protocol: The antivascular effect of the molecule (I-1) was tested on mice bearing human tumors by comparison with the positive control DMXAA, according to the procedure described by Beauregard et al. (NMR Biomed., 2002, 15:99-105).
Thus, CD-1 Nude female mice were xenografted by subcutaneous injection of human colon tumoral cells (LS174T). The mice bearing tumors were then treated with 0.9% NaCl (carrier, 10 mL/kg), DMXAA (27.5 mg/kg) via an intraperitoneal route (IP) or the molecule (I-1) (45 mg/kg) via an intravenous route (IV). Three hours after administration, the mice were treated with the Dotarem® contrast agent intravenously (IV). The penetration of the contrast agent into the tumors was followed in real time by magnetic resonance imaging (MRI) and is expressed by an enhancement of the intensity of the signal in the tumors. Densitometric analysis of the acquired images allows determination of the maximum enhancement (Rmax) as well as the slope P0 corresponding to the entry rate of Dotarem® into the tumors.

[11] = MDA-MB-231, 72 hours of incubation
[12] = MDA-MB-435, 72 hours of incubation

T1 sequence (P02554 whole entry): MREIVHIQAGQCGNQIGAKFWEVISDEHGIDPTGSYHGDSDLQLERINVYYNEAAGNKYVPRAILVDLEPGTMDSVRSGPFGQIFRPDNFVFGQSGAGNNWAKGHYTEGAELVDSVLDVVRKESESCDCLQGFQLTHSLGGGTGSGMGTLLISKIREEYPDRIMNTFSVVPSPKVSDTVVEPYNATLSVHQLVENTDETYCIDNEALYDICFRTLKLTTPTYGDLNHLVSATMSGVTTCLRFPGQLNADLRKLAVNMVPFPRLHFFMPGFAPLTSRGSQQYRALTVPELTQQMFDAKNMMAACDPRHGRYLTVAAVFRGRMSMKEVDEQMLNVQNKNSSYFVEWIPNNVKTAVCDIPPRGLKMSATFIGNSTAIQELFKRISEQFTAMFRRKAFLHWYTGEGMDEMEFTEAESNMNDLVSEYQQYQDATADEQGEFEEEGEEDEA
T1 sequence (P02550 whole entry): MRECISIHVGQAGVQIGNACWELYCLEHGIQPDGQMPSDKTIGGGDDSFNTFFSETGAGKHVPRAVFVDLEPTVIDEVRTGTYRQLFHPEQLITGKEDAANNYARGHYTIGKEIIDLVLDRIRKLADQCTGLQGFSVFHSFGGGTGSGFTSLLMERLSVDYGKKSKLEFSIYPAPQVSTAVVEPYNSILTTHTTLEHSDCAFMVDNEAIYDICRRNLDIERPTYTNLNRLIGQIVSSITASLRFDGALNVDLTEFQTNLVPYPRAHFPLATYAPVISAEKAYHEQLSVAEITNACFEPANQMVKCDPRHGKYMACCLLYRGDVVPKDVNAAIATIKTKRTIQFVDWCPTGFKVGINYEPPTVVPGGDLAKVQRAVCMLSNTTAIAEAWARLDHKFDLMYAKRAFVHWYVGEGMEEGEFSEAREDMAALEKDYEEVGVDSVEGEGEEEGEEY

Q: Which “Cytotoxic activity, times weaker than the natural Z isomer” value [1] does the source give for COc1ccc(C=Cc2cc(OC)c(OC)c(OC)c2)cc1O (single isomer, unassigned) [E isomer of CA-4] here?
A: about 60 times

Q: Which IC50 [2] does the source give for C=C(c1ccc(OC)cc1)c1cc(OC)c(OC)c(OC)c1 [(I-2)] here?
A: 2000 to 3300 nM

Q: What about the IC50 [3] of the same molecule?
A: 42 nM

Q: And the IC50 ([4]; A549, 72 hours of incubation)?
A: 28 nM

Q: What about the IC50 [5, 11] of the same molecule?
A: 40 nM

Q: And the IC50 [6, 12]?
A: 25 nM

Q: With C=C(c1ccc(OC)c(OC(C)=O)c1)c1cc(OC)c(OC)c(OC)c1 [(I-6)] as the molecule, how does the IC50 [3] read?
A: 8 nM

Q: And the IC50 ([7]; 72 hours of incubation)?
A: 18 nM

Q: What about the IC50 ([4]; A549, 72 hours of incubation) of the same molecule?
A: 25 nM

Q: What about the IC50 [5, 11] of the same molecule?
A: 9 nM

Q: And the IC50 [6, 12]?
A: 11 nM

Q: With C=C(c1ccc(OC)c(OC(=O)C(C)(C)C)c1)c1cc(OC)c(OC)c(OC)c1 [(I-7)] as the molecule, how does the IC50 [3] read?
A: 8 nM

Q: What about the IC50 ([7]; 72 hours of incubation) of the same molecule?
A: 15 nM

Q: And the IC50 ([4]; A549, 72 hours of incubation)?
A: 28 nM

Q: And the IC50 [5, 11]?
A: 50 nM

Q: What about the IC50 [6, 12] of the same molecule?
A: 25 nM

Q: Which IC50 [3] does the source give for C=C(c1ccc(OC)c(OC(=O)CCCc2ccc(N(CCCl)CCCl)cc2)c1)c1cc(OC)c(OC)c(OC)c1 [(I-8)] here?
A: 25 nM

Q: What about the IC50 ([7]; 72 h) of the same molecule?
A: 35 nM

Q: What about the IC50 ([4]; A549, 72 h) of the same molecule?
A: 42 nM

Q: What about the IC50 ([5]; MDA-MB-231, 72 h) of the same molecule?
A: 50 nM

Q: What about the IC50 ([6]; MDA-MB-435, 72 h) of the same molecule?
A: 40 nM

Q: For C=C(c1ccc(OC)c(N)c1)c1cc(OC)c(OC)c(OC)c1 [(I-17)], which IC50 [2] is on record?
A: 1800 nM

Q: And the IC50 ([4]; A549, 72 hours of incubation)?
A: 8 nM

Q: And the IC50 [5, 11]?
A: 6 nM

Q: Which results are given for C=C(c1ccc(OC)c(F)c1)c1cc(OC)c(OC)c(OC)c1 [(I-22)]?
A: IC50 [2]: 4100 nM; IC50 [3]: 7 nM

Q: With C=C(c1ccc(OC)c(OC(=O)[C@@H](COC(C)(C)C)NC(=O)OCC2c3ccccc3-c3ccccc32)c1)c1cc(OC)c(OC)c(OC)c1 [(I-32)] as the molecule, how does the IC50 [3] read?
A: 8 nM

Q: Which IC50 [3] does the source give for C=C(c1ccc(OC)c(OC(=O)c2ccncc2)c1)c1cc(OC)c(OC)c(OC)c1 [(I-34)] here?
A: 3 nM

Q: For C=C(c1ccc(OC)c(OC(=O)CCC(=O)O)c1)c1cc(OC)c(OC)c(OC)c1 [(I-35)], which IC50 [3] is on record?
A: 5 nM

Q: With C=C(c1ccc(OC)c(OC(=O)CN(C)C)c1)c1cc(OC)c(OC)c(OC)c1 [(I-36)] as the molecule, how does the IC50 [3] read?
A: 3 nM

Q: For C=C(c1ccc(OC)c(OC(=O)Cc2cccc3c(=O)c4ccc(C)c(C)c4oc23)c1)c1cc(OC)c(OC)c(OC)c1 [(I-45)], which IC50 [3] is on record?
A: 7 nM

Q: Which “Antitumoral activity in vivo” value [8] does the source give for COc1ccc(/C=C\c2cc(OC)c(OC)c(OC)c2)cc1O [CA-4, combrestatatin A-4] here?
A: no antitumoral activity is observed

Q: What about the IC50 [9] of the same molecule?
A: 0.9 nM

Q: Which results are given for Cc1ccc2c(=O)c3cccc(CC(=O)O)c3oc2c1C [DMXAA, 5,6-dimethylxanthenone-4-acetic acid, reference compound]?
A: Average of P0 [10]: 0.50±0.40 arbitrary unit; Average of Rmax [10]: 26.58±21.19 % of the NaCl control
